Each structure is given as a SMILES string.

Drawing on patent publication US20140121231A1, “PYRANOPYRIDONE INHIBITORS OF TANKYRASE” (Hoffmann-La Roche, Inc., priority 2012, published 2014), this text covers IC50 for 18 compounds.

For test [1], the target named is T1, PARP1 (His6-PARP1, full length) (Homo sapiens, UniProt P09874).
T1 construct: His6-PARP1 (full length) can be substituted for His6-TNKS 1
In words: TR-FRET Binding Assay (Example 71), PARP1. Conditions: TR-FRET assay of Example 71 with His6-PARP1. The method, then: (§1) μHTS-TNKS-IWR2 TR-FRET Binding Assay (10 μL/well in BD1536-well plate, a single point)
Tankyrase 1 (TNKS1): 184.3 μM=5.2 mg/mL His6-TNKS1, MW=28.2 KDa (construct: 1088-1327, 1266M) in 20 mM Tris pH 8, 150 mM NaCl, 10% glycerol, and 0.5 mM TCEP. Alternatively, His6-tankyrase 2 (construct: 934-1166) (His6-TNKS2) or His6-PARP1 (full length) can be substituted for His6-TNKS 1.
(§2) Assay buffer 1a (AB1a) for TNKS dilution: 50 mM Tris, pH 7.4, 100 mM sodium chloride solution, 1 mM magnesium chloride solution, 1 mM DL-dithiothreitol solution, 0.2 mg/mL bovine serum albumin solution, 0.025% NP-40. Assay buffer 1b (AB 1b) for Biotin-IWR2 dilution: 50 mM Tris, pH 7.4, 100 mM sodium chloride solution, 1 mM magnesium chloride solution, 1 mM DL-dithiothreitol solution, 0.2 mg/mL bovine serum albumin solution, 0.05% NP-40 Assay buffer 1c (AB 1c) for compound dilution: 50 mM Tris, pH 7.4, 100 mM sodium chloride solution, 1 mM magnesium chloride solution, 1 mM DL-dithiothreitol solution, 0.2 mg/mL bovine serum albumin solution Assay buffer 2 (AB2) for Eu/APC: 50 mM Tris, pH 7.4, 100 mM sodium chloride solution, 1 mM magnesium chloride solution, 0.2 mg/mL bovine serum albumin solution
Prepare Biotinylated IWR2 stock solution (3.33× stock) for TOTL and compound wells: 200 nM Biotin-IWR2 in 5% DMSO/AB1b buffer
Prepare BLANK well stock solution: 5% DMSO/AB1b buffer Prepare POSITIVE CONTROL well stock solution (3.33× stock): 200 nM XAV939 in 200 nM Biotin-IWR2/5% DMSO/AB1b buffer Prepare TNKS1 stock solution (5× stock): 300 nM TNKS in AB1a buffer. (Alternatively, use TNKS2 or PARP1 stock solutions.) Prepare Eu/APC stock solution (5× stock): 3.5 nM Eu-SA/50 nM APC-His6Ab in AB2 buffer.
(§3) Add 25 μL/well 1.5% DMSO/AB1c buffer in each compound well to the compound concentration at 74 μM in 8.8% DMSO/AB1c buffer or in the 2 μL DMSO CONTROL wells (BLANK, TOTAL and POSITIVE wells) in the compound plate. Transfer 3 μL/well of above solution (solution 1,2,3) to an empty assay plate (BD1536-well plate) as follows: TOTAL and cpd wells: Solution 1 (Biotin-IWR2): BLANK wells: Solution 2 (No Biotin-IWR2): POSITIVE CONTROL wells: Solution 3 (Biotin-IWR2XAV939) Transfer 3 μL/well of the above diluted compound solutions or compound dilution buffer to the above assay plate. Add 2 μL/well of 300 nM TNKS stock solution (4) to every well in the above assay plate. Centrifuge the assay plate at 2100 rpm for 2 min. Incubate the assay plate at 26° C. for 30 minutes. Add 2 μL/well 3.5 nMEu/50 nM APC solution (5) to every well in the above assay plate. Centrifuge the assay plate at 2100 rpm for 2 min. Incubate the assay plate at 26° C. for 60 min. Read the assay plate immediately at excitation wavelength of 330 nm and emission wavelength of 615 and 665 nM in time resolved fluorescence mode.
. Representative compound data for the PARP1 assay is in TABLE 2 (below) Values are in μM.

In a further test the target is T2, Tankyrase 1 (TNKS1) (Homo sapiens, UniProt O95271).
T2 construct: His6-TNKS1, MW=28.2 KDa (construct: 1088-1327, 1266M)
Kind of test: μHTS-TNKS-IWR2 TR-FRET Binding Assay (Example 71), TNKS1. The method, then:
as §1, §2
as §3, with “Transfer” for “Add 25 μL/well 1.5% DMSO/AB1c buffer in each compound well to the compound concentration at 74 μM in 8.8% DMSO/AB1c buffer or in the 2 μL DMSO CONTROL wells (BLANK, TOTAL and POSITIVE wells) in the compound plate. Transfer”, “min.” for “min. Read the assay plate immediately at excitation wavelength of 330 nm and emission wavelength of 615 and 665 nM in time resolved fluorescence mode.”

In a further test the target is T3, tankyrase 2 (His6-TNKS2) (Homo sapiens, UniProt Q9H2K2).
T3 construct: His6-tankyrase 2 (construct: 934-1166) (His6-TNKS2)
In words: μHTS-TNKS-IWR2 TR-FRET Binding Assay (Example 71), TNKS2. Conditions: footnote 1: Tankyrase 1 and 2 inhibition assay in Example 71 (TR-FRET). How it is done:
as §1
Biotin-4-((1S,2R,6S,7R)-3,5-Dioxo-4-aza-tricyclo[5.2.1.0*2,6*]dec-8-en-4-yl)-N-(4-methyl-quinolin-8-yl)-benzamide (Biotin-IWR2): 10 mM Biotin-IWR2 stock in DMSO, stored at −20° C. Positive control: 10 mM 2-(4-Trifluoromethyl-phenyl)-3,5,7,8-tetrahydro-thiopyrano[4,3-d]pyrimidin-4-one (XAV939) in DMSO, stored at −20° C.
as §2
as §3, with “Transfer” for “Add 25 μL/well 1.5% DMSO/AB1c buffer in each compound well to the compound concentration at 74 μM in 8.8% DMSO/AB1c buffer or in the 2 μL DMSO CONTROL wells (BLANK, TOTAL and POSITIVE wells) in the compound plate. Transfer”, “min.” for “min. Read the assay plate immediately at excitation wavelength of 330 nm and emission wavelength of 615 and 665 nM in time resolved fluorescence mode.”

T3 sequence (Q9H2K2 934-1166): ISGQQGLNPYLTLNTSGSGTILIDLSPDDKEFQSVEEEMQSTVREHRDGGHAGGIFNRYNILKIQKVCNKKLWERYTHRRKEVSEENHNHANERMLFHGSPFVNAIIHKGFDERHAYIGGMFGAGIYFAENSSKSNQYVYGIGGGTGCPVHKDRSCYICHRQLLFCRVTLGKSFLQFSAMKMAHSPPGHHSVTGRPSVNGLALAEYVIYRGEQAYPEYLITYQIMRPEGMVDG
T1 sequence (P09874 whole entry, species assumed): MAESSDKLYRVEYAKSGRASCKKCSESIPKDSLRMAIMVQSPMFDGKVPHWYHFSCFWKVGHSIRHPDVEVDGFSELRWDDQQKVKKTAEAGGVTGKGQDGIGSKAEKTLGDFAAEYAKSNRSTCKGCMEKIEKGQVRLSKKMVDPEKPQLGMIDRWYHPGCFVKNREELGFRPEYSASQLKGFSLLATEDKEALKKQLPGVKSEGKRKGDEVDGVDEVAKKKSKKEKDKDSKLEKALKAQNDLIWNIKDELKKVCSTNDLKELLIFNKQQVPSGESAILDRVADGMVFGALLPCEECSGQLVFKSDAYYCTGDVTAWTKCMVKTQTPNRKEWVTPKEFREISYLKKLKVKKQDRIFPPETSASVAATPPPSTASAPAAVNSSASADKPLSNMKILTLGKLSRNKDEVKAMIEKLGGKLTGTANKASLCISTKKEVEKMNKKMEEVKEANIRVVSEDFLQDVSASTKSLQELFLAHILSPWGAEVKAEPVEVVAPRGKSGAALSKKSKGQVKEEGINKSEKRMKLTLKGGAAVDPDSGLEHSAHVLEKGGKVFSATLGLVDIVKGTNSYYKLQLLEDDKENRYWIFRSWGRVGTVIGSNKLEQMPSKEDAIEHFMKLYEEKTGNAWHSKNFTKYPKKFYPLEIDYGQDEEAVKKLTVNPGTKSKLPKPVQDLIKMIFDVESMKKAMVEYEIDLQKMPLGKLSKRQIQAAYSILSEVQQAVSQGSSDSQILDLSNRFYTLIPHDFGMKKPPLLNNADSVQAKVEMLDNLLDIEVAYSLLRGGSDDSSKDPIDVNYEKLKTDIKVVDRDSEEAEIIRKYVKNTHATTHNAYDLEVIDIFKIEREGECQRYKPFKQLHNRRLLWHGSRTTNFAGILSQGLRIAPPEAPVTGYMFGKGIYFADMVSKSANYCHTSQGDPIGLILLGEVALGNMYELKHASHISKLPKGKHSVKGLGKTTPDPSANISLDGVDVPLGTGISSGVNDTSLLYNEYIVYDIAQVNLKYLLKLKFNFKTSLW
T2 sequence (O95271 1088-1327): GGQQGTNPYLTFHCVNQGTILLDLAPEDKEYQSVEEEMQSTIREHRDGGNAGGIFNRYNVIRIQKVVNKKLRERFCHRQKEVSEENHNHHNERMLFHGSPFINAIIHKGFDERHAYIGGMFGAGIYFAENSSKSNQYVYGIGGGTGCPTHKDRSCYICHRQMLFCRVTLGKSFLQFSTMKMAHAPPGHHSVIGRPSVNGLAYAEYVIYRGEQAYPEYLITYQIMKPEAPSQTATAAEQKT

For the compound `CC(C)C1Cc2[nH]c(=O)c3ccc(C(N)=O)cc3c2CO1` (racemic) [Compound I-23, rac-2-Isopropyl-9-oxo-1,4,9,10-tetrahydro-2H-3-oxa-10-aza-phenanthrene-6-carboxylic acid amide], the IC50 in test [1] worked out at 2030 nM; at Tankyrase 1 (TNKS1) it was 88.6 nM; on tankyrase 2 (His6-TNKS2), 243 nM.
Take `CC(C)C1Cc2[nH]c(=O)c3ccc(N)cc3c2CO1` (racemic) [Compound I-24, rac-6-Amino-2-isopropyl-1,2,4,10-tetrahydro-3-oxa-10-aza-phenanthren-9-one]: the IC50 in test [1] came out at 63.4 nM; on Tankyrase 1 (TNKS1), 473 nM; at tankyrase 2 (His6-TNKS2), 1300 nM.
For `CC(=O)N1CCC(C2Cc3[nH]c(=O)c4ccccc4c3CO2)CC1` (racemic) [Compound I-25, rac-2-(1-Acetyl-piperidin-4-yl)-1,2,4,10-tetrahydro-3-oxa-10-aza-phenanthren-9-one], in that order: 67.7 nM, 25.5 nM and 27 nM.
For `CS(=O)(=O)N1CCC(C2Cc3[nH]c(=O)c4ccccc4c3CO2)CC1` (racemic) [Compound I-26, rac-2-(1-Methanesulfonyl-piperidin-4-yl)-1,2,4,10-tetrahydro-3-oxa-10-aza-phenanthren-9-one] the same measures were 98.7 nM, 48.2 nM and 55.4 nM.
On to `CC(C)C1Cc2[nH]c(=O)c3ccc(Cl)cc3c2CO1` (racemic) [Compound I-27, rac-6-Chloro-2-isopropyl-1,2,4,10-tetrahydro-3-oxa-10-aza-phenanthren-9-one], for which the IC50 in test [1] stood at 197 nM; at Tankyrase 1 (TNKS1), 39.1 nM; at tankyrase 2 (His6-TNKS2), 53.5 nM.
For `CC(C)C1Cc2[nH]c(=O)c3ccsc3c2CO1` (racemic) [Compound I-28, rac-7-Isopropyl-5,6,7,9-tetrahydro-8-oxa-1-thia-5-aza-cyclopenta[a]naphthalen-4-one], in that order: 1920 nM, 81.8 nM and 177 nM.
For `CC(C)(COCc1ccccc1)C1Cc2[nH]c(=O)c3ccccc3c2CO1` (racemic) [Compound I-29, rac-2-(2-Benzyloxy-1,1-dimethyl-ethyl)-1,2,4,10-tetrahydro-3-oxa-10-aza-phenanthren-9-one], in that order: 126 nM, 67.2 nM and 113 nM.
Turning to `O=c1[nH]c2c(c3cnccc13)COC(C1CCCC1)C2` (racemic) [Compound I-31, rac-7-Cyclopentyl-5,7,8,9-tetrahydro-6-oxa-3,9-diaza-phenanthren-10-one], the IC50 came out at 1790 nM in test [1], 70.8 nM at Tankyrase 1 (TNKS1) and 89.1 nM at tankyrase 2 (His6-TNKS2).
For `CC(C)OC(=O)N1CCC(C2Cc3[nH]c(=O)c4ccccc4c3CO2)CC1` (racemic) [Compound I-32, rac-4-(9-Oxo-1,4,9,10-tetrahydro-2H-3-oxa-10-aza-phenanthren-2-yl)-piperidine-1-carboxylic acid isopropyl ester] the same measures were 81.8 nM, 30.8 nM and 40.5 nM.
For `O=C(C1CC1)N1CCC(C2Cc3[nH]c(=O)c4ccccc4c3CO2)CC1` (racemic) [Compound I-33, rac-2-(1-Cyclopropanecarbonyl-piperidin-4-yl)-1,2,4,10-tetrahydro-3-oxa-10-aza-phenanthren-9-one], in that order: 94.8 nM, 36.5 nM and 52 nM.
For `CC(C)(C)C1Cc2[nH]c(=O)c3ccncc3c2CO1` (racemic) [Compound I-34, rac-7-tert-Butyl-4a,5,7,8,9,10a-hexahydro-6-oxa-3,9-diaza-phenanthren-10-one], in that order: 3470 nM, 84.9 nM and 183 nM.
Take `CC(C)C1Cc2[nH]c(=O)c3ccc(C4CC4)cc3c2CO1` (racemic) [Compound I-38, rac-6-Cyclopropyl-2-isopropyl-1,2,4,10-tetrahydro-3-oxa-10-aza-phenanthren-9-one]: the values for the IC50 (in test [1]; on Tankyrase 1 (TNKS1); at tankyrase 2 (His6-TNKS2)) were 18700 nM, 91 nM and 196 nM, respectively.
For `CC(C)(C)C1Cc2[nH]c(=O)c3sccc3c2CO1` (racemic) [Compound I-40, rac-7-tert-Butyl-5,6,7,9-tetrahydro-8-oxa-3-thia-5-aza-cyclopenta[a]naphthalen-4-one], in that order: 222 nM, 32.6 nM and 35.5 nM.
Take `Cc1cccc2c(=O)[nH]c3c(c12)COC(C(C)(C)C)C3` (racemic) [Compound I-41, rac-2-tert-Butyl-5-methyl-1,2,4,10-tetrahydro-3-oxa-10-aza-phenanthren-9-one]: the results for the IC50 (in test [1]; at Tankyrase 1 (TNKS1); at tankyrase 2 (His6-TNKS2)) were 46.9 nM, 21.2 nM and 26 nM, respectively.
For `Cn1ncc2c(=O)[nH]c3c(c21)COC(C(C)(C)C)C3` (racemic) [Compound I-42, rac-7-tert-Butyl-1-methyl-5,6,7,9-tetrahydro-1H-8-oxa-1,2,5-triaza-cyclopenta[a]naphthalen-4-one], the values for the IC50 (in test [1]; on Tankyrase 1 (TNKS1); on tankyrase 2 (His6-TNKS2)) were 2100 nM, 60.9 nM and 87.7 nM, respectively.
For `CC(C)(C)C1Cc2[nH]c(=O)c3cnccc3c2CO1` (racemic) [Compound I-43, rac-7-tert-Butyl-5,7,8,9-tetrahydro-6-oxa-2,9-diaza-phenanthren-10-one], in that order: 876 nM, 43.9 nM and 49 nM.
With `CC1(C(=O)N2CCC(C3Cc4[nH]c(=O)c5ccccc5c4CO3)CC2)CC1` (racemic) [Compound I-46, rac-2-[1-(1-Methyl-cyclopropanecarbonyl)-piperidin-4-yl]-1,2,4,10-tetrahydro-3-oxa-10-aza-phenanthren-9-one], the IC50 in test [1] came to 87.1 nM; on Tankyrase 1 (TNKS1), 33.2 nM; on tankyrase 2 (His6-TNKS2), 44.3 nM.
Turning to `O=c1[nH]c2c(c3ccccc13)COC(C1CCOCC1)C2` (racemic) [Compound I-47, rac-2-(Tetrahydro-pyran-4-yl)-1,2,4,10-tetrahydro-3-oxa-10-aza-phenanthren-9-one], the results for the IC50 (in test [1]; on Tankyrase 1 (TNKS1); on tankyrase 2 (His6-TNKS2)) were 63.6 nM, 32.4 nM and 36.8 nM, respectively.
